Assays:
Androgen receptor [1] = target: T1, Androgen receptor (Rattus norvegicus, UniProt P15207); assay type: functional
T1 sequence (P15207 whole entry): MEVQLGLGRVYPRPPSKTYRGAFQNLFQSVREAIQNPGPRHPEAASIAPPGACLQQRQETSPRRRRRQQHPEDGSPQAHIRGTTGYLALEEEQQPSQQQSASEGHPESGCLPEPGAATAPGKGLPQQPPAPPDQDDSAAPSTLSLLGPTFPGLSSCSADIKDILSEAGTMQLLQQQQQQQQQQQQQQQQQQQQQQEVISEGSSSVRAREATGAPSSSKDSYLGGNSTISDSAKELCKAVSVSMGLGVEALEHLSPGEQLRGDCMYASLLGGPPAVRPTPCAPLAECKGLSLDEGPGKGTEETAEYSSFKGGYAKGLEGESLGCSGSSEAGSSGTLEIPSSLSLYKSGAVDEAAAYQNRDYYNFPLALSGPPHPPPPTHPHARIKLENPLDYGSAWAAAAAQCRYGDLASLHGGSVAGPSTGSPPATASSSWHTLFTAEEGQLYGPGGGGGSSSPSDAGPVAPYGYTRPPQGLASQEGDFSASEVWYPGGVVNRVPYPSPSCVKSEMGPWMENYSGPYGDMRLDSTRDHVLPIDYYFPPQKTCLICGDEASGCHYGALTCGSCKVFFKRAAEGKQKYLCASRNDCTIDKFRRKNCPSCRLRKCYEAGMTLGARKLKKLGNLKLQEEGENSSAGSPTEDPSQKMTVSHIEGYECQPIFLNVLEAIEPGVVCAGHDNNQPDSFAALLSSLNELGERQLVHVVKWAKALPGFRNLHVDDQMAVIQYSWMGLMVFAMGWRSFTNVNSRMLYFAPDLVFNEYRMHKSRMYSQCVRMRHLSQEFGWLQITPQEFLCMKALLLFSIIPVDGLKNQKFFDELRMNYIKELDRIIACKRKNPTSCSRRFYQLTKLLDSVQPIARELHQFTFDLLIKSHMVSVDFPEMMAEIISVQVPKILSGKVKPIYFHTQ

[2] = target: T2, Muscarinic acetylcholine receptor M2 (Homo sapiens, UniProt P08172)
T2 sequence (P08172 whole entry): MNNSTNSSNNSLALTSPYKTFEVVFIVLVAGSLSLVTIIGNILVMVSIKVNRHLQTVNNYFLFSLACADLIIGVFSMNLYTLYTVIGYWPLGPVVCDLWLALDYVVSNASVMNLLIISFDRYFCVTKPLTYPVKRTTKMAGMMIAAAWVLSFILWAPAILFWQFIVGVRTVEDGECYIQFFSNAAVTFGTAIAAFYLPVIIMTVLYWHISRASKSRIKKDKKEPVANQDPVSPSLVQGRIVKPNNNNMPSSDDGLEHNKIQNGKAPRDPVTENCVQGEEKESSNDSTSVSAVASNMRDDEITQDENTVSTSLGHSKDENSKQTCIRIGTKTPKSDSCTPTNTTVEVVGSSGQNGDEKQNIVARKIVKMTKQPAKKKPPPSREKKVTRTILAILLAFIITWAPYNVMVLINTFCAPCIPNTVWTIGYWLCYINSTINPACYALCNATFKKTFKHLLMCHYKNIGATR

Prothrombin = Prothrombin (Homo sapiens, UniProt P00734); assay type: functional
[3] = target: Sodium-dependent dopamine transporter (Homo sapiens, UniProt Q01959)
Androgen receptor [4] = target: T1, Androgen receptor
[5] = target: T3, Alpha-2A adrenergic receptor (Homo sapiens, UniProt P08913)
T3 sequence (P08913 whole entry): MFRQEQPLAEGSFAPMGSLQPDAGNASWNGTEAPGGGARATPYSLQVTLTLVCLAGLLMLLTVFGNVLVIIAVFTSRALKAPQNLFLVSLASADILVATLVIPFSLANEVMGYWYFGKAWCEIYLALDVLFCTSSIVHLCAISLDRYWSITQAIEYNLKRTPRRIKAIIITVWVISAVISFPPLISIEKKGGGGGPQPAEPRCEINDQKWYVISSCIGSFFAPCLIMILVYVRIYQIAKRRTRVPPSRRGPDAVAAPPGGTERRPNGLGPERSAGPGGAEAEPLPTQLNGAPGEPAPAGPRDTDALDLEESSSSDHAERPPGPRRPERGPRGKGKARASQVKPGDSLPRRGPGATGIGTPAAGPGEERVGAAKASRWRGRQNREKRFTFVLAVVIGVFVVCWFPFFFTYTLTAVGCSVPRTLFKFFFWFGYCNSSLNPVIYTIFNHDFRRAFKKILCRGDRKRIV

[6] = target: Neurotensin receptor type 1 (Homo sapiens, UniProt P30989)
Substance-P receptor = Substance-P receptor (Homo sapiens, UniProt P25103)
[7] = target: Beta-1 adrenergic receptor (Homo sapiens, UniProt P08588); assay type: functional, cell-based
Note: assay procedure not described here.

Chain of Sodium-dependent dopamine transporter (Q01959 whole entry): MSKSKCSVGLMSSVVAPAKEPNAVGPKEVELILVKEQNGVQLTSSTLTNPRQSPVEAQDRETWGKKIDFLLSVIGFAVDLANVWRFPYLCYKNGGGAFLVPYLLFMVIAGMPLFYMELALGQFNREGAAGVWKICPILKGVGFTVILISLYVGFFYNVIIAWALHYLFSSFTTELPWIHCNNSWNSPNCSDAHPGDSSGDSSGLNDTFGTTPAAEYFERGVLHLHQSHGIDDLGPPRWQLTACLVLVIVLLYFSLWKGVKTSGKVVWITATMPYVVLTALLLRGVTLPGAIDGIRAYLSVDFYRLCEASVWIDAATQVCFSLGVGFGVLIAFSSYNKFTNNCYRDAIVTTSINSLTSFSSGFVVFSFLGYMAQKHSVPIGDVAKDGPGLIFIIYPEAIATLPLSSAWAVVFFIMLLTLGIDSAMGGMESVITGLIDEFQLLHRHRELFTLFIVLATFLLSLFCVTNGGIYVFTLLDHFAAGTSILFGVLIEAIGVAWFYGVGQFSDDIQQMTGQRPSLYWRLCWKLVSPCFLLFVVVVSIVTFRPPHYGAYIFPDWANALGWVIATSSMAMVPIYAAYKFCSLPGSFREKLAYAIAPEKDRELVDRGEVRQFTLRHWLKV
Chain of Beta-1 adrenergic receptor (P08588 whole entry): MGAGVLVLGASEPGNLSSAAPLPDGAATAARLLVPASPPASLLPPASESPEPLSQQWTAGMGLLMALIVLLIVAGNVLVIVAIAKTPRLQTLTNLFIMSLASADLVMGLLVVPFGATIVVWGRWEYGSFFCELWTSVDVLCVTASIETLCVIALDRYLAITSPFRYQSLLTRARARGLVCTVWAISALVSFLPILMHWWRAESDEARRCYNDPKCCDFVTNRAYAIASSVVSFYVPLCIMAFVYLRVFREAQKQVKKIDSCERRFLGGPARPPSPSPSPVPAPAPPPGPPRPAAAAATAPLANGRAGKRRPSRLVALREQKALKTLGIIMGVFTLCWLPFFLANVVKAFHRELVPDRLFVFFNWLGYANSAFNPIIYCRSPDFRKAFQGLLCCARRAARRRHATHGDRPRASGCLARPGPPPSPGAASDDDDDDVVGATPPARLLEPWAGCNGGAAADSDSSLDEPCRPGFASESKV
Chain of Neurotensin receptor type 1 (P30989 whole entry): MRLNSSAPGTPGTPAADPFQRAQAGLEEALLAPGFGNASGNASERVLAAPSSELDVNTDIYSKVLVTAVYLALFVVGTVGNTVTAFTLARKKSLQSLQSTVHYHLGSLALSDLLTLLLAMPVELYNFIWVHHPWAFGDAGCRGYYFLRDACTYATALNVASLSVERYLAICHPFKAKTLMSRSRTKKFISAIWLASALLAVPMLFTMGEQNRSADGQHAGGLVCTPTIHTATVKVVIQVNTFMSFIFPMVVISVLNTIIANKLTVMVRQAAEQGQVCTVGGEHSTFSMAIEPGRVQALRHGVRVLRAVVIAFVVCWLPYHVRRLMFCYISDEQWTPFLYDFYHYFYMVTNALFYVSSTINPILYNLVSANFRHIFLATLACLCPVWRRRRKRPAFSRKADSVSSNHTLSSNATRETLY
Chain of Substance-P receptor (P25103 whole entry): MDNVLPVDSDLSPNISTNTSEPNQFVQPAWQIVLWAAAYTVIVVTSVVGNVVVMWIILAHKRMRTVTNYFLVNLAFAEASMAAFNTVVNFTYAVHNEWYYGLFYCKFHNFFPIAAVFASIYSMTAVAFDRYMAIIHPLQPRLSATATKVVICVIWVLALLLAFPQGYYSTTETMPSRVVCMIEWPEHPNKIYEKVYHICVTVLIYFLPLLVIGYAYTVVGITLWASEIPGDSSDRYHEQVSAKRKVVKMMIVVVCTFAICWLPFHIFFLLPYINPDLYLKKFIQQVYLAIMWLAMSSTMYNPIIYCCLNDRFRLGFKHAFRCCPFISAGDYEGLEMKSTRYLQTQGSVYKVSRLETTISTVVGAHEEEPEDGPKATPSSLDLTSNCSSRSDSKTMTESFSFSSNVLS

Compound: NC(=O)CN1CC(O)CC1=O (stereo not drawn) [OXIRACETAM]
- AC50 (Androgen receptor [1]): > 30 µM

Compound: THIMEROSAL
- AC50 [2]: > 30 µM
- AC50 (Prothrombin): > 30 µM
- AC50 [3]: > 30 µM

Compound: NC(=O)OCC(COC(N)=O)c1ccccc1 [FELBAMATE]
- AC50 (Androgen receptor [4]): > 10 µM

Compound: CC(C)(C)NCC(O)COc1cccc2c1CCC(=O)N2 (stereo not drawn) [CARTEOLOL]
- AC50 (Androgen receptor [4]): > 10 µM

Compound: O=C1C(O)=C([C@H]2CC[C@H](c3ccc(Cl)cc3)CC2)C(=O)c2ccccc21 [ATOVAQUONE]
- AC50 (Androgen receptor [1]): > 30 µM

Compound: CC/C(=C(\c1ccccc1)c1ccc(OCCN(C)C)cc1)c1ccccc1 [TAMOXIFEN]
- AC50 [5]: > 10 µM

Compound: COc1cccc(C2(O)CCCCC2CN(C)C)c1 (stereo not drawn) [TRAMADOL]
- AC50 (Androgen receptor [4]): > 30 µM
- AC50 [6]: > 30 µM
- AC50 (Substance-P receptor): > 10 µM
- AC50 [5]: > 10 µM

Compound: C#C[C@]1(O)CC[C@H]2[C@@H]3[C@H](C)CC4=C(CCC(=O)C4)[C@H]3CC[C@@]21C [TIBOLONE]
- AC50 [7]: > 30 µM

Compound: Cc1c(OCC(F)(F)F)ccnc1C[S+]([O-])c1nc2ccccc2[nH]1 (stereo not drawn) [LANSOPRAZOLE]
- AC50 [6]: > 30 µM
- AC50 (Substance-P receptor): 17.2 µM
- AC50 [5]: > 10 µM

Compound: CO[C@]12C[C@@H](COC(=O)c3cncc(Br)c3)CN(C)[C@@H]1Cc1cn(C)c3cccc2c13 [NICERGOLINE]
- AC50 [2]: 7.93 µM
- AC50 (Prothrombin): > 30 µM
- AC50 [3]: 11.2 µM

Compound: COc1ccc(CCNCC(O)COc2cccc(C)c2)cc1OC (stereo not drawn) [BEVANTOLOL]
- AC50 (Androgen receptor [4]): > 10 µM

Compound: Fc1ccc(C(c2ccccc2)(c2ccccc2F)n2ccnc2)cc1 (stereo not drawn) [FLUTRIMAZOLE]
- AC50 (Androgen receptor [1]): > 30 µM

Compound: C[C@@H]1O[C@@H](O[C@@H]2C=C3CC[C@@H]4[C@H](CC[C@]5(C)[C@@H](c6ccc(=O)oc6)CC[C@]45O)[C@@]3(C)CC2)[C@H](O)[C@H](O)[C@H]1O [PROSCILLARIDIN]
- AC50 [7]: > 30 µM
- AC50 (Androgen receptor [1]): > 30 µM

Reference: ChEMBL document CHEMBL5291721, “A preclinical secondary pharmacology resource illuminates target-adverse drug reaction associations of marketed drugs” (Nat Commun, 2023)
